Data on five molecules can be found in PMC6591174, “The beneficial androgenic action of steroidal aromatase inactivators in estrogen-dependent breast cancer after failure of nonsteroidal drugs” (Cell Death & Disease, 2019).

Entries after “also recorded” stand apart in the source; their conditions may differ.

Assay [1] relates to MCF-7 cells. Nature of the assay: Cell proliferation assay (CCK8), MCF-7. It counts as cell-based, human. To be noted: for proliferation of MCF-7 cells: 1 nM-10 μM, 6 days, 10% PRF-CT with 1 nM E2. Here is the method: (§1) Fig. 2 Proliferative response of cancer cells to indicated compounds. a–c the effect of concentrations of different compounds on the growth of the cells. […] Cell growth was measured as described in the “Materials and methods”. The proliferation of cells is expressed as the ratio of the cells compared with the control wells (untreated cells). d, e Influence of different compounds on the cell cycle of MCF-7 cells. MCF-7 cells were cultured in 10% PRF-CT with E2 (1 nM) for 3 days before plating. Cells were seeded in six-well plates and, the next day, starved in PRF for 24 h. Cells were exposed to different compounds at a concentration of 100 nM for 72 h, and then subjected to cell-cycle analysis as described in “Materials and methods”. f MCF-7 cells on poly-L-lysine-coated glass coverslips were exposed to compounds (100 nM) in 10% PRF-CT with 1 nM E2 for 72 h. Control cells were treated with vehicle. DAPI stains DNA, and the secondary anti-mouse antibody to detect the antibody bound to Ki-67 is labeled with the cyanine dye Cy3. The cells were stained with DAPI (blue). Immunofluorescence staining of Ki-67 of cells was observed using fluorescence microscope. Red: Ki-67; blue: nucleus.Typical image is shown. Scale bars: 10 μm. Data represent a mean ± SEM of three independent experiments, each in triplicate; bars, SEM. *P ≤ 0.05 vs. control
(§2) After 24 h, cells were exposed for 3–6 days to various concentrations of compounds (1 nM– 10 μM) or left untreated. The incubation time and the compounds concentrations were chosen based on previous studies[17],[32]–[34]. The effects of the various drugs on cell proliferation at the indicated concentrations (1 nM– 10 μM) were determined by using a CCK8 kit (Dojindo Laboratories, Kumamoto, Japan) according to the manufacturer’s protocol. The absorbance at 450 nm was measured by using a Versamax microplate reader (Thermo Varioskan Flash, USA). Cell growth is expressed as the ratio of the cells compared with the control wells (untreated cells).

Assay [2] deals with ER(+) breast cancer (luminal A tumors). Also noted: method as in printed. To be noted: daily topical application to the affected breast, within 40 days; earlier work of the authors, ref not given; cited from earlier work.
In assay [3] the test system is MCF-7 cells. Nature of the assay: Cell cycle analysis by flow cytometry. It counts as cell-based, human. The following applies: 100 nM, 72 h. Here is the method: Fig. 2 Proliferative response of cancer cells to indicated compounds. a–c the effect of concentrations of different compounds on the growth of the cells. Cells were cultured in 10% PRF-CT with E2 1 nM (MCF-7 and ZR-75-1) or without E2 (MDA-MB-231) for 3 days before plating. Cells were seeded in 96-well plates and 24 h later they were exposed to different concentrations (1 nM– 10 μM) of compounds for 6 days (MCF-7 and ZR-75-1) or 3 days (MDA-MB-231). Cell growth was measured as described in the “Materials and methods”. The proliferation of cells is expressed as the ratio of the cells compared with the control wells (untreated cells). d, e Influence of different compounds on the cell cycle of MCF-7 cells. MCF-7 cells were cultured in 10% PRF-CT with E2 (1 nM) for 3 days before plating. Cells were seeded in six-well plates and, the next day, starved in PRF for 24 h. Cells were exposed to different compounds at a concentration of 100 nM for 72 h, and then subjected to cell-cycle analysis as described in “Materials and methods”. f MCF-7 cells on poly-L-lysine-coated glass coverslips were exposed to compounds (100 nM) in 10% PRF-CT with 1 nM E2 for 72 h. Control cells were treated with vehicle. DAPI stains DNA, and the secondary anti-mouse antibody to detect the antibody bound to Ki-67 is labeled with the cyanine dye Cy3. The cells were stained with DAPI (blue). Immunofluorescence staining of Ki-67 of cells was observed using fluorescence microscope. Red: Ki-67; blue: nucleus.Typical image is shown. Scale bars: 10 μm. Data represent a mean ± SEM of three independent experiments, each in triplicate; bars, SEM. *P ≤ 0.05 vs. control
Cell cycle kinetics were studied by flow cytometry. MCF-7 cells were cultured in 10% PRF–CT with 1 nM E2 for 3 days prior to seeding on six-well plates (10^5 cells/well). Following seeding of cells, cells were serum starved for 24 h, and then treated with media containing 100 nM of the test compounds for 72 h. Cell-cycle analysis was performed as described by Ando[20].

A further assay has as its system ZR-75-1 cells. Nature of the assay: Cell proliferation assay (CCK8), ZR-75-1. It counts as cell-based, human. To be noted: for proliferation of ZR-75-1 cells: 1 nM-10 μM, 6 days, 10% PRF-CT with 1 nM E2. Here is the method: as §1, §2
The subject of assay [4] is prostate (P), seminal vesicle (SV), levator ani muscle (LA). In words: Hershberger assay in orchiectomized rats. It counts as in vivo, Wistar male rats. To be noted: for androgenic effect (P and SVs): 10 mg/kg s.c. once a day. Here is the method: Fig. 5 Estimation of the androgenic and myotrophic activities of the indicated compounds obtained by the Hershberger Assay. Wistar male rats were orchiectomized (orchi) or sham-operated (intact) under ether anesthesia. After 14 days of endogenous hormonal decline, animals were randomly allocated to treatment and vehicle groups (n = 6). The numbers at the end of the abbreviations correspond to the dose in mg/kg body weight of the animal. Flutamide was given by gavage (10 mg/kg/day). […] Then the animals were treated once a day. The rats were sacrificed after completion of the 12-day treatment. Following removal, wet weights of the prostate (P), seminal vesicle (SV), levator ani muscle (LA) were determined. a Size and shape of P, SV and LA at the end of the treatment period. b, c, and d, influence of treatment with the compounds alone or together with the antiandrogen flutamide at the indicated doses on the weight of the organs (P, SV and LA) of the castrated animals. The mean wet weight is represented by the bars in the graphs. Values are means ± SEM; bars, SEM. *P ≤ 0.05, **P ≤ 0.01 vs. control
The Hershberger assay was performed according to the guidelines of the rodent Hershberger assay. Male Wistar rats (140 g, 5–6 weeks) were orchiectomized (orchi) or sham-operated (intact) under ether anesthesia. After 14 days of endogenous hormonal decline, animals were randomly allocated to treatment and vehicle groups (n = 6); orchi group = orchi rats receiving sham injections; intact group = sham-operated rats receiving sham injections; treatment group = orchi rats receiving drugs injections by subcutaneous. The antiandrogen flutamide given by gavage (10 mg/kg/day). Drugs were dissolved in ethanol and diluted in corn oil. The animals were treated once a day. Rats were sacrificed after completion of the 12-day treatment. Following removal, the wet weights of the P, SV, and LA muscle were determined. The data of tissue weights are presented as mean ± SEM.

Another assay deals with androgenic organs. Set-up: method as in PMID 404132. The following applies: doses of 3 and 10 mg/kg; cited from earlier work.
Assay [5] has as its system AR protein in MCF-7 cells. Nature of the assay: AR protein expression by western blot and immunofluorescence. It counts as cell-based, human. The following applies: incubation 3 days. Here is the method:
Fig. 3 Influence of indicated compounds on the expression of the AR. […] AR protein expression was analyzed by western blot as described in “Materials and methods”. b The densitometric evaluation of the bands is calculated by ImageJ. The numbers represent the densitometric value relative to untreated control. […] Typical image is shown. Scale bars: 10 μm
Total cell proteins were obtained from 70% confluent cell cultures. Protein extracts of whole cells (50 μg) were denatured, separated by SDS–PAGE and transferred to polyvinylidene fluoride membranes. After blocking with 3% bovine serum albumin in Tris-buffered saline-Tween, membranes were probed overnight at 4 °C. […] After incubation with the appropriate secondary antibody, results were detected using ECL detection reagents. Immunoreactive bands were quantified by densitometry using ImageJ software.
MCF-7 cells were seeded on 24-well plates (2 × 10^4 cells/well) with a poly-L-lysine-coated glass coverslip per well in 10% PRF–CT. […] Cells were visualized with a ×40 objective and a Qimaging digital camera coupled to an Olympus X71 fluorescence microscope using a red fluorescent protein filter.
On the technique in general: In western blotting, separated proteins are transferred to a membrane and probed.

The target of assay [6] is T1, Rat AR ligand-binding domains (His-GST-ARLBD) (Rattus norvegicus, UniProt P15207).
T1 construct: purchased Invitrogen
T1 sequence (P15207 651-882 limits assumed): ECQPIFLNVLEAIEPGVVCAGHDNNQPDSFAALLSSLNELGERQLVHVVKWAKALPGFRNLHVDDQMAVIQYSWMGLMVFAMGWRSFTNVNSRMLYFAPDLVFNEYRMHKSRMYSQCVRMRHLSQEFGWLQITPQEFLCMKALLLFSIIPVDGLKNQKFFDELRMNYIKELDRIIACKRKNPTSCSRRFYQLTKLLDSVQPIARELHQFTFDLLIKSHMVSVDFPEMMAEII
In words: AR fluorescence polarization-based competitive hormone-binding assay (PolarScreen AR Competitor Assay, Red). From the text:
Fig. 4 The affinity of indicated compounds to the AR and their regulation of AR transcriptional activity. a AR fluorescence polarization-based competitive hormone-binding assays. […] Curve fitting was done using GraphPad Prism software (version 7.00). […] ARE(3×)-regulated dual-luciferase activity in U2-OS cells under steroid-free conditions. Cells were transiently transfected with pcDNA3.1-AR and ARE3-luc2P (firefly luciferase reporter plasmids) and the internal normalization control pRL-TK (Renilla luciferase reporter plasmid). Six hours after transfection, cells were treated as indicated. Then they were assayed 48 h after transfection for dual-luciferase activity. […] Briefly, compounds were dissolved in DMSO and mixed at 2% (vol/vol) with AR Red Screening Buffer. The tested compounds were subsequently serially diluted in two-fold increments with AR Red Screening Buffer and mixed 1:1 (vol/vol) with a 2 × AR/Fluormone AL complex. Competition for binding AR between Fluormone AL and the tested compounds was allowed to come to equilibrium for 4 h and not more than 20 h at room temperature in the dark. Fluorescence polarization value (mP) was measured on a fluorescence polarization plate reader (Biotech cytation5). Each compound dose was performed in triplicate, relative error was calculated from the standard error of the mean (SEM), and curve fitting was performed using GraphPad Prism™ 7.0 software.
For orientation: Fluorescence polarisation rises when a labelled molecule tumbles more slowly, as on binding a larger partner.

Where [7] appears, read: 100 nM compound with 100 nM OH-Flutamide.

Regarding `C[C@]12CCC(=O)C(O)=C1CC[C@@H]1[C@@H]2CC[C@]2(C)C(=O)CC[C@@H]12` [4-OHA, 4-hydroxyandrostenedione], the “proliferation of MCF-7 cells” value in the assay on MCF-7 cells [1] is on record as “some antiproliferative action”. Besides, the “reduction of tumor size (regression)” value in assay [2] is listed as “more than 50%”. Further, the “influence on the cell cycle (G1/G0 increase, S-phase decrease)” value with MCF-7 cells [3] was “apparently more effective than Exemestane and 17-HEXE”. In addition, the “proliferation of ZR-75-1 cells” value in the assay on ZR-75-1 cells was “no effect on the growth”. Further, the “androgenic effect (P and SVs)” value was “no effect on P and SVs” in assay [4] (12 days, castrated rats); “no effect on androgenic organs whatsoever” in assay [4] (12 days, castrated rats, listed as Formestane).

`C=C1C[C@@H]2[C@H](CC[C@]3(C)C(=O)CC[C@@H]23)[C@@]2(C)C=CC(=O)C=C12` [Exemestane]: the androgenic activity result with androgenic organs is “slight androgenic activity”. For the same molecule, the “proliferation of MCF-7 cells” value in the assay with MCF-7 cells [1] is listed as “less effective”. Further, in the assay with ZR-75-1 cells, the “proliferation of ZR-75-1 cells” value was “less effective”. Further, in assay [4] (12 days, castrated rats), the “androgenic effect (P and SVs)” value is reported as “slightly androgenic; also recorded: the same effect”. For the same molecule, the “expression of the AR protein” value in assay [5] is given as “considerably more effective than Formestane”.

On to `CC(C)C(=O)Nc1ccc([N+](=O)[O-])c(C(F)(F)F)c1` [Flutamide, flutamide], for which the “prevention of androgenic effects of the test compounds” value in assay [4] (Flutamide by gavage 10 mg/kg/day, concomitant) is listed as “All androgenic effects can be eliminated”.

For the molecule `C[C@@H]1CC2=CC(=O)CC[C@@H]2[C@H]2CC[C@@]3(C)[C@@H](CC[C@]3(C)O)[C@@H]21` [Mibolerone], in the assay on MCF-7 cells [1], the “proliferation of MCF-7 cells” value was “antiproliferative in two ER(+)/AR(+) cell lines at all concentrations”. In the assay on ZR-75-1 cells, the “proliferation of ZR-75-1 cells” value was “antiproliferative in two ER(+)/AR(+) cell lines at all concentrations”. Further, the IC50 in assay [6] was 11.8 nM. Moreover, the “effect on P, SVs and LA compared with DHT” value in assay [4] (0.5 mg/kg s.c. once a day, 12 days, castrated rats) is given as “more effective than DHT”.

For `CC(C)(O)C(=O)Nc1ccc([N+](=O)[O-])c(C(F)(F)F)c1` [OH-Flutamide, hydroxyflutamide], in the assay on MCF-7 cells [1] (setting [7]), the “antiproliferative effect in presence of OH-Flutamide, MCF-7” value is given as “the antiproliferative effect of DHT is almost completely abolished”. In the assay on ZR-75-1 cells (setting [7]), the “antiproliferative effect in presence of OH-Flutamide, ZR-75-1” value is “the antiproliferative effect of DHT is almost completely abolished”.

Usually IC50 stands for the concentration that inhibits the measured activity by half. The low end stands for greater potency, the high end for weaker potency.
